Measurements reported in US11066369B2, “N-(pyridin-2-yl)pyridine-sulfonamide derivatives and their use in the treatment of disease” (Novartis AG, priority 2016, dated 2021).
Structures can show the parent of a compound that is named as a salt.

Target: T1, horseradish peroxidase (HRP) tagged delF508-CFTR (Homo sapiens, UniProt P13569, DEL508-508)
T1 construct: expressed in transfected cells
Experiment: Measurement of delF508-CFTR-HRP surface expression in CFBE41o- cells;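 as to DelF508-CFTR-HRP Amax %: percent efficacy relative to reference corrector lumacaftor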
Type: cell-based
Settings: delF508-CFTR-HRP surface expression, CFBE41o- cells; for Emax: read-out: DelF508-CFTR-HRP Amax %; for EC50: read-out: DelF508-CFTR-HRP EC50
Method in brief: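 Surface-trafficked delF508-CFTR detected via extracellular HRP tag, read as luminescence from a membrane-impermeant substrate in CFBE41o- cells. Cells pre-induced 48h with 500 ng/mL doxycycline, then exposed 24h at 37° C to a 10-point, 3-fold dilution series from 10 μM (DMSO ≤0.5%). Triplicate dose-responses fitted logistically for EC50 after per-plate normalization; fold change versus reference compound.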

T1 sequence (P13569 with tags, fused parts or gaps DEL508-508): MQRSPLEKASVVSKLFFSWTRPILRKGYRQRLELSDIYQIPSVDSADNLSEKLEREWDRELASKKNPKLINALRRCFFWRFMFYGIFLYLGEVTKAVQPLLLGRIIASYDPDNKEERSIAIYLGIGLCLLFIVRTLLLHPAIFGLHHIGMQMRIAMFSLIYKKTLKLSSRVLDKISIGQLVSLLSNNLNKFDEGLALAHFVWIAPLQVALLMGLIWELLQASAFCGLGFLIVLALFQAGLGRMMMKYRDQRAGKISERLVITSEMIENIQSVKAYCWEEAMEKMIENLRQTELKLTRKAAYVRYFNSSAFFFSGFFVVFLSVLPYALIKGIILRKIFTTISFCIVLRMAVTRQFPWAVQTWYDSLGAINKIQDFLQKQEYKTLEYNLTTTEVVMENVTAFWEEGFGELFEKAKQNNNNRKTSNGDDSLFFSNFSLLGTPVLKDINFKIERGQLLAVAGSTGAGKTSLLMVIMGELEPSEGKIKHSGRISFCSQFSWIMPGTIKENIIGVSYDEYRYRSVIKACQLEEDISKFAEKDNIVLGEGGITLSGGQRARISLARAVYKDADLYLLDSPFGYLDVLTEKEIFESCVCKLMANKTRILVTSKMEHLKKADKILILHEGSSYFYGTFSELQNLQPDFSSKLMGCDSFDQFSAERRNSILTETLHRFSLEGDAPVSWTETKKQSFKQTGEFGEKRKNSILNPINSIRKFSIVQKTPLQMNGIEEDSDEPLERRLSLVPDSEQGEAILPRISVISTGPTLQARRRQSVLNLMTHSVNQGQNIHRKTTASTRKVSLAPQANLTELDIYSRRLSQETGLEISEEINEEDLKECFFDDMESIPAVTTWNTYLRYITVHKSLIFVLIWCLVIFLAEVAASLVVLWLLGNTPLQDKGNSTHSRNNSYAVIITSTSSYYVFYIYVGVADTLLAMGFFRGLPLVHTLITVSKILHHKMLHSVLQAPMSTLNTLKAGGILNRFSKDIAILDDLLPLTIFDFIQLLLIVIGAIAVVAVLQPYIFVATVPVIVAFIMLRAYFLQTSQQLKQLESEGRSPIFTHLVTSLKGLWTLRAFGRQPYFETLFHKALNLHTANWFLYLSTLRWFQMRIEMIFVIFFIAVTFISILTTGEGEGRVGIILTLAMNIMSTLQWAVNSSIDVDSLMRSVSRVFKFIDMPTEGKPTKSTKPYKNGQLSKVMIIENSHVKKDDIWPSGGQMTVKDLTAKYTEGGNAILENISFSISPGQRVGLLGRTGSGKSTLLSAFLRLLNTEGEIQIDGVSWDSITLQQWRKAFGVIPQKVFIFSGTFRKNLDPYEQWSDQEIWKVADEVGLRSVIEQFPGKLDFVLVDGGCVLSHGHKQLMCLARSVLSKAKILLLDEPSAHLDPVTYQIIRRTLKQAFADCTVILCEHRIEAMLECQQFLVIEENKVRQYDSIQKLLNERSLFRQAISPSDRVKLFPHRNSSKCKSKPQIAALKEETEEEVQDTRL

Emax [%] | EC50 [µM] | Compound
280 | 4.51 | CC1(C(=O)O)CCN(c2cccc(S(=O)(=O)Nc3ccc(Cl)c(-c4ccccc4Cl)n3)n2)CC1 [Example 239, 1-(6-(N-(5-chloro-6-(2-chlorophenyl)pyridin-2-yl)sulfamoyl)pyridin-2-yl)-4-methylpiperidine-4-carboxylic Acid]
385 | 3.42 | CC1(C(=O)O)CCN(c2cccc(S(=O)(=O)Nc3ccc(C(F)(F)F)c(-c4ccc(F)cc4Cl)n3)n2)CC1 [Example 240, 1-(6-(N-(6-(2-chloro-4-fluorophenyl)-5-(trifluoromethyl)pyridin-2-yl)sulfamoyl)pyridin-2-yl)-4-methylpiperidine-4-carboxylic Acid]
152 | 2.6 | CC1(C(=O)O)CCN(c2cccc(S(=O)(=O)Nc3ccc(Cl)c(-c4ccc(F)cc4Cl)n3)n2)CC1 [Example 243, 1-(6-(N-(5-chloro-6-(2-chloro-4-fluorophenyl)pyridin-2-yl)sulfamoyl)pyridin-2-yl)-4-methylpiperidine-4-carboxylic Acid]
222 | 3.65 | COc1ccc(Cl)c(-c2nc(NS(=O)(=O)c3cccc(N4CCC(C)(C(=O)O)CC4)n3)ccc2Cl)c1 [Example 244, 1-(6-(N-(5-chloro-6-(2-chloro-5-methoxyphenyl)pyridin-2-yl)sulfamoyl)pyridin-2-yl)-4-methylpiperidine-4-carboxylic Acid]
602 | 2.47 | CCOC(=O)C1(C)CCN(c2cccc(S(=O)(=O)Nc3ccc(Cl)c(-c4cccc(F)c4C)n3)n2)CC1 [Example 252, ethyl 1-(6-(N-(5-chloro-6-(3-fluoro-2-methylphenyl)pyridin-2-yl)sulfamoyl)pyridin-2-yl)-4-methylpiperidine-4-carboxylate]
828 | 1.39 | CCOC(=O)C1(C)CCN(c2cccc(S(=O)(=O)Nc3ccc(C(F)(F)F)c(-c4cccc(F)c4C)n3)n2)CC1 [Example 258, ethyl 1-(6-{[6-(3-fluoro-2-methylphenyl)-5-(trifluoromethyl)pyridin-2-yl]sulfamoyl}pyridin-2-yl)-4-methylpiperidine-4-carboxylate]

Further lines, the compound ahead of its results:

Compound | Emax [%] | EC50 [µM]
Cc1cccc(C)c1-c1nc(NS(=O)(=O)c2cccc(N3CCn4ccnc4C3)n2)ccc1Cl [Example 198, N-(5-chloro-6-(2,6-dimethylphenyl)pyridin-2-yl)-6-(5,6-dihydroimidazo[1,2-a]pyrazin-7(8H)-yl)pyridine-2-sulfonamide] | 692 | 1.95
Cc1ccc(F)cc1-c1nc(NS(=O)(=O)c2cccc(N3C[C@@H]4CC[C@H]3CN4)n2)ccc1C(F)(F)F [Example 200, 6-((1S,4S)-2,5-diazabicyclo[2.2.2]octan-2-yl)-N-(6-(5-fluoro-2-methylphenyl)-5-(trifluoromethyl)pyridin-2-yl)pyridine-2-sulfonamide Hydrochloride] | 553 | 3.17
Cc1ccc(F)cc1-c1nc(NS(=O)(=O)c2cccc(N3CCN4CC[C@H]3C4)n2)ccc1C(F)(F)F [Example 202, 6-((5S)-1,4-diazabicyclo[3.2.1]octan-4-yl)-N-(6-(5-fluoro-2-methylphenyl)-5-(trifluoromethyl)pyridin-2-yl)pyridine-2-sulfonamide] | 159 | 3.93
COc1cc(NS(=O)(=O)c2cccc(N3CC(C)(O)C3)n2)nc(-c2c(C)cccc2C)c1 [Example 206, N-(6-(2,6-dimethylphenyl)-4-methoxypyridin-2-yl)-6-(3-hydroxy-3-methylazetidin-1-yl)pyridine-2-sulfonamide] | 95.9 | 3.7
COC(=O)C1(C)CCN(c2cccc(S(=O)(=O)Nc3ccc(C(F)(F)F)c(-c4ccccc4C4CC4)n3)n2)CC1 [Example 236, methyl 1-(6-(N-(6-(2-cyclopropylphenyl)-5-(trifluoromethyl)pyridin-2-yl)sulfamoyl)pyridin-2-yl)-4-methylpiperidine-4-carboxylate] | 602 | 0.573
